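1) Cells in 96-well plates. 2) Compound, 48 h, 5 concentrations. 3) Linear interpolation between surrounding doses. 4) Unreached endpoint = highest concentration. Here, GI50 denotes the concentration required for 50% inhibition of growth. TGI is the concentration that stops growth completely.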
Columns and labels:
Experiment in all cases: NCI anticancer screen, dose series, 48 h
MDA-MB-435 = tested on: MDA-MB-435
SNB-19 CNS = tested on: SNB-19 CNS
NCI-H522 lung = tested on: NCI-H522 lung
CCRF-CEM leukemia = tested on: CCRF-CEM leukemia
SK-OV-3 ovarian = tested on: SK-OV-3 ovarian
HCC-2998 colon = tested on: HCC-2998 colon
LOX IMVI melanoma = tested on: LOX IMVI melanoma
PC-3 prostate = tested on: PC-3 prostate
HT29 colon = tested on: HT29 colon
K-562 leukemia = tested on: K-562 leukemia

SMILES	GI50 (MDA-MB-435) [µM]	TGI (MDA-MB-435) [µM]	GI50 (SNB-19 CNS) [µM]	TGI (SNB-19 CNS) [µM]	GI50 (NCI-H522 lung) [µM]	TGI (NCI-H522 lung) [µM]	GI50 (CCRF-CEM leukemia) [µM]	TGI (CCRF-CEM leukemia) [µM]	GI50 (SK-OV-3 ovarian) [µM]	TGI (SK-OV-3 ovarian) [µM]	GI50 (HCC-2998 colon) [µM]	TGI (HCC-2998 colon) [µM]	GI50 (LOX IMVI melanoma) [µM]	TGI (LOX IMVI melanoma) [µM]	GI50 (PC-3 prostate) [µM]	TGI (PC-3 prostate) [µM]	GI50 (HT29 colon) [µM]	TGI (HT29 colon) [µM]	TGI (K-562 leukemia) [µM]	GI50 (K-562 leukemia) [µM]
O=C(CN(/C=C/C(=O)C(F)(F)F)c1ccc(Cl)cc1)c1ccc(Cl)c(Cl)c1	4.03	13.5	15.4	33.6	2.88	8.81	3.41	11	17.1	35.2	12.6	26.2	4.13	16.6	4.25	16.7	3.96	> 100	–	–
COc1cc(/C=C/c2ccc(O)c(OC)c2)cc(OC)c1	–	–	–	> 100	–	–	–	> 100	–	76.9	–	> 100	–	–	–	46.8	–	85.8	> 100	–
COC(=O)Nc1nc2ccccc2[nH]1	–	8.05	–	> 100	–	–	–	> 100	–	> 31.5	–	> 100	–	> 100	–	> 100	–	> 100	> 100	–
O=C(NNc1ccc(Cl)cc1)C1CCC(CNS(=O)(=O)c2ccccc2Cl)CC1 (centres undefined)	4.77	24.1	–	–	12.8	75.1	39.2	> 100	–	–	1.48	13.8	–	–	3.69	34.7	–	–	5.73	1.96
C1CCCCc2nc3c(nc2CCC1)c1nc2c(nc1c1nc4c(nc31)CCCCCCCC4)CCCCCCCC2	–	–	–	> 100	–	–	–	> 100	–	> 100	–	> 100	–	> 100	–	–	–	> 100	> 100	–
Cc1ccc2nc(NC(=O)C(=O)C(C#N)c3ccc(Cl)cc3)sc2c1 (centres undefined)	–	–	–	> 50	–	–	–	–	–	> 50	–	> 50	–	> 50	–	–	–	> 50	–	–
CC1=C(SC#N)S(=O)(=O)N(c2ccccc2)C(C)=C1SC#N	–	–	–	76.5	–	> 100	–	45.8	–	89.9	–	> 100	–	> 100	–	–	–	> 100	66	–
CC(C)N(Cc1ccc(CN(C(=O)CCl)C(C)C)cc1)C(=O)CCl	1.7	4.9	2.16	5.4	0.156	0.342	0.287	0.865	1.83	3.35	2	3.94	0.29	1.05	2.27	5.48	–	–	18.3	2.28
O=C(O)/C(Cc1ccnc2ccccc12)=N\O	–	> 100	–	> 100	–	> 100	–	> 100	–	> 100	–	–	–	> 100	–	> 100	–	> 100	> 100	–
Cc1cc(C)c(C#N)c(Sc2nc(C)c([N+](=O)[O-])c(C)c2C#N)n1	2.1	4.75	15.1	88	–	–	–	–	3.76	27.4	4.66	15.8	1.82	3.44	4.67	61.2	3.71	10.8	> 100	2.9
